{"source": "patent US5409946A", "about": "“Isoxazole, isothiazole and pyrazole compounds that enhance cognitive function” (Abbott Laboratories, priority 1993, dated 1995)", "key": {"[1]": {"tested_on": "anxiety induced by (-)-nicotine withdrawal", "experiment": "Elevated plus-maze 48 hours after withdrawal of 14-day chronic (-)-nicotine", "assay_type": "in vivo, rats", "conditions": "for TIME OPEN ARMS: chronic (-)-nicotine, mean ± SEM", "source_text": "The mouse elevated plus-maze is a conflict test that probes anxiolytic activity of test compounds (Lister, Psychopharmacology, 1987, 92:180). It is based on the fact that exposure of mice to an elevated open arm leads to an avoidance response considerably stronger than that evoked by exposure to an enclosed arm. Compounds may be tested for their ability to modify the avoidance response of the animal to the open arm maze. […] The effect of such potential anti-anxiety drugs may be tested further in a withdrawal challenge test.\nElevated Plus-Maze: The procedure originally described by Pellow et al., for rats was used, with minor modifications (Pellow et al., J. Neurosci. Meth., 14: 149, 1985). The apparatus consisted of two open arms (50×10 cm) and two enclosed arms (50×10×40 cm) extending from a central platform (10×10 cm). It was mounted on a base raising 50 cm above the floor. Light levels on the open and enclosed arms were similar. The animals were placed in the center of the maze and the time spent in the open arms and the total distance traveled by the rat were recorded automatically by a camera mounted above the apparatus, then analyzed by computer (Videomex™ software, Columbus Instruments, Columbus, Ohio). All animals used were naive to the apparatus. Animals were injected i.p. with saline or the different drug doses, and submitted to the test 30 minutes later. The test lasted 5 minutes, and the apparatus was thoroughly cleaned after removal of the animal.\nThe pumps were removed on day 14 and the animals were tested in the plus-maze 48 hours later, at the time when a state of withdrawal-induced anxiety was present in the rats. On the test day i.p. doses of either saline or the compound of Example 2 were administered to the animals 30 minutes before the test. Data (Table 13) represent the mean ±SEM time spent in the open arms of the plus-maze of 8-16 rats."}, "[2]": {"tested_on": "basal forebrain neurotransmission / cortical cerebral blood flow", "experiment": "Cerebral blood flow (laser-doppler flowmetry) and mean arterial pressure with basal forebrain stimulation", "assay_type": "in vivo, male Sprague-Dawley rats", "method": "Methods for surgical preparation of rats for electrical stimulation of brain and measurement of CBF have been previously described (Nakai et al., Am. J. Physiol., 1982, 243: 226) and are summarized below.\nStudies are conducted on male Sprague-Dawley rats that are maintained in a thermally-controlled (26°-27° C.), light-cycled (7.00 hour on-19.00 hour off) environment, fed standard rat chow and given water ad libitum. Anesthesia is induced with halothane (3.5%; balance O2) delivered through a nose mask and maintained at 2% during the initial surgery. Thin-wall vinyl catheters (o.d.=0.03 inch) are placed in each femoral artery and vein, and the trachea is cannulated.\nAnimals are subsequently co-anesthetized with urethane (1.5 g/kg, s.c.) and placed in a stereotaxic frame with the head positioned so that the floor of the IVth ventricle was horizontal (incisor bar position: -11 mm. ). After connecting the tracheal cannula to a small-animal respirator, the animals are temporarily paralyzed with d-tubocurarine (0.6 mg/kg/h, i.m.), and ventilated (80 cpm) with 100% O2. Arterial pressure (AP) and heart rate (HR) are continuously monitored through one of the arterial catheters connected to a Statham P23Db transducer that is coupled to a chart recorder. The level of anesthesia during surgery or subsequent experimental testing is assessed by the AP response to tail pinch, with increasing levels of arousal giving rise to irregular AP readings. Booster doses of urethane (250 mg/kg, s.c.) are given as needed.\nBilateral craniotomies (approximately 4 mm×11 mm) are performed overlying the frontoparietal cortices taking care to leave the dura intact. Halothane is delivered at a reduced rate of 1% during cranial surgery and discontinued afterward. A small volume (about 0.2 ml) of arterial blood is sampled after completion of all surgery for measurement of PO2, PCO2 and pH by a blood gas analyzer. Arterial blood gases are maintained so that PO2 was greater than 100 mm Hg, PCO2 =33-38 mmHg, and pH=7.35-7.45. Maintaining these values is accomplished by adjusting the stroke volume of the ventilator. Once appropriate physiological parameters are obtained (approximately 30 min), the experimental protocol is initiated.\nThe basal forebrain (BF) is stimulated with cathodal current delivered through a stainless steel concentric bipolar electrode ([…]) made by Rhodes Medical Instruments (Model SNEX-100). Electrical pulses are generated by a square wave stimulator (Grass, Model S-88) and constant current is passed through a photoelectric stimulus-isolation unit (Grass, Model PSIU6). The stimulus current is measured on an oscilloscope by continuously displaying the voltage drop across a 10-ohm resistor.\nThe procedure for eliciting an increased cortical CBF response requires the stereotaxic placement of the stimulating electrode into the BF. For positioning, the electrode is inclined posteriorly to 18 degrees, and the stereotaxic coordinates used were 5.0 mm posterior to, and 2.6 mm lateral to bregma (stereotaxic zero reference point). […] These parameters have been shown previously to elicit maximal increases in cortical CBF (Arneric, Excerpta Medica International Congress Series, 869:381, 1989). The region of the BF that selectively affects cortical CBF is restricted, with electrode movements of 0.5 mm dorsal or ventral to this site eliciting potent vasodepressor responses in addition to the increases in CBF. […] When CBF increases of approximately 100% or greater are repeatedly obtained in the absence of significant changes in AP (<10 mm Hg) or HR (<10 beats/min.), and when the perfusion rate is stable in the absence of BF stimulation, the experimental testing is started.\nThe principles and technical aspects of laser-doppler flowmetry (LDF) are presented in detail in Bonner et al., Appl. Opt., 1981, 20:2097 and Stern et al., Am. J. Physiol., 1977, 232:H441. […]"}}, "note": "Entries after “also recorded” stand apart in the source; their conditions may differ."}
{"smiles": "Cc1cc([C@@H]2CCCN2C)on1.O=C(O)C(=O)O", "note": "[Example 2, 3-Methyl-5-(1-methyl-2(S)-pyrrolidinyl)-isoxazole oxalate salt]", "values": [{"measurement": "effect on time spent in the open arms", "setting": "[1]; 48 h after withdrawal of chronic (-)-nicotine", "value": "significant increase in the time spent in the open arms"}, {"measurement": "TIME OPEN ARMS", "setting": "[1]; challenge 0.19 μmol/kg i.p.", "value": "36.8 ± 12.5", "unit": "s"}, {"measurement": "TIME OPEN ARMS", "setting": "[1]; challenge 0.62 μmol/kg i.p., **p < 0.05 against chronic nicotine, saline-challenged", "value": "73.6 ± 7.7", "unit": "s"}, {"measurement": "TIME OPEN ARMS", "setting": "[1]; challenge 1.9 μmol/kg i.p.", "value": "43.1 ± 10.1", "unit": "s"}, {"measurement": "BF-elicited CBF % change from pre-drug control", "setting": "[2]; 0.004 μmol/kg i.v.", "value": "+68%"}, {"measurement": "MAP % change from pre-drug control", "setting": "[2]; 0.004 μmol/kg i.v.", "value": "+5%"}, {"measurement": "resting CBF % change from pre-drug control", "setting": "[2]; 0.004 μmol/kg i.v.", "value": "+5%"}, {"measurement": "MAP % change from pre-drug control", "setting": "[2]; 0.040 μmol/kg i.v.", "value": -5, "unit": "%"}, {"measurement": "resting CBF % change from pre-drug control", "setting": "[2]; 0.040 μmol/kg i.v.", "value": -2, "unit": "%"}, {"measurement": "BF-elicited CBF % change from pre-drug control", "setting": "[2]; 0.040 μmol/kg i.v., *p < 0.05", "value": "+60%"}, {"measurement": "MAP % change from pre-drug control", "setting": "[2]; 0.400 μmol/kg i.v.", "value": -13, "unit": "%"}, {"measurement": "resting CBF % change from pre-drug control", "setting": "[2]; 0.400 μmol/kg i.v.", "value": -6, "unit": "%"}, {"measurement": "BF-elicited CBF % change from pre-drug control", "setting": "[2]; 0.400 μmol/kg i.v., *p < 0.05", "value": "+68%"}, {"measurement": "effect on resting CBF and the BF-elicited CBF response", "setting": "[2]; i.v., low concentrations, n=3", "value": "effective in enhancing resting CBF and the BF-elicited CBF response"}, {"measurement": "effects on MAP / blood pressure", "setting": "[2]; i.v., oxalate salt", "value": "No remarkable effects on MAP; also recorded: no overt effects on blood pressure"}]}
